Reference: patent US6300499A, “α1-adrenergic receptor antagonists” (Societe de Conseils de Recherches et d'Applications …, priority 1998, dated 2001)

target: α1-adrenergic receptor; assay: Test of the bond to the α1-adrenergic receptor (inhibition of [3H]prazosin bond to rat cerebral cortex); type: binding, rat (male Sprague Dawley); details: [3H]prazosin 0.2 nM, rat cerebral cortex membranes, 30 min, 25° C., pH 7.7
Procedure: The cerebral cortices of male Sprague Dawley rats are homogenized at 4° C. in Tris-HCl 50 mM pH=7.7 and centrifuged at 50,000 g for 30 minutes at 4° C. The pellets are again suspended in the same buffer and centrifuged again at 50,000 g for 30 minutes at 4° C.
The filters are rinsed three times with the same buffer at 0-4° C. and their radioactivity is tested by liquid scintillation spectrometry.
The specific bonds are obtained by subtracting the non-specific bonds (determined in the presence of 10 μM of phentolamine (Sigma Chemical Co. St. Louis Mo.)) from the total bonds. The data relative to the bonds is analyzed by computer assisted iterative non-linear regression analysis, using the Ligand program (Munson, P. J., Rodbard, D. Anal. Biochem. 107:220 (1980)).

SMILES | Ki
COc1ccccc1N1CCN(CCCNC(=O)C(O)c2ccccc2)CC1 (racemic) [Compound 19, (±)-α-hydroxy-N-[3-{4-(2-methoxyphenyl)-1-piperazinyl}-propyl]-benzeneacetamide] | 60 nM
CCCCC(O)(C(=O)NCCCN1CCN(c2cc(C)ccc2C)CC1)c1ccccc1 (racemic) [Compound 28, (±)-N-[3-{4-(2,5-dimethylphenyl)-1-piperazinyl}-propyl]-2-hydroxy-2-phenyl-hexanamide] | 36 nM
Cc1ccc(C)c(N2CCN(CCCNC(=O)C(N)c3ccccc3)CC2)c1 (racemic) [Compound 32, (±)-a-amino-N-[3-{4-(2,5-dimethylphenyl)-1-piperazinyl}-propyl]-benzeneacetamide] | 51 nM
Cc1ccc(C)c(N2CCN(CCCNC(=O)C(NS(C)(=O)=O)c3ccccc3)CC2)c1 (racemic) [Compound 33, (±)-N-[3-{4-(2,5-dimethylphenyl)-1-piperazinyl}-propyl]-α-(methylsulphonylamino)-benzeneacetamide] | 40 nM
COc1ccc(CC(C)(O)C(=O)NCCCN2CCN(c3cc(C)ccc3C)CC2)cc1 (racemic) [Compound 34, (±)-N-[3-{4-(2,5-dimethylphenyl)-1-piperazinyl}-propyl]-2-hydroxy-2-methyl-4-methoxy-benzenepropionamide] | 45 nM
Cc1ccc(C(C)(O)C(=O)NCCCN2CCN(c3cc(C)ccc3C)CC2)cc1 (racemic) [Compound 41, (±)-N-[3-{4-(2,5-dimethylphenyl)-1-piperazinyl}-propyl]-α-hydroxy-α-methyl-4-methyl-benzeneacetamide] | 27 nM
Cc1ccc(C)c(N2CCN(CCCNC(=O)C(C)(O)c3ccc4ccccc4c3)CC2)c1 (racemic) [Compound 43, (±)-N-[3-{4-(2,5-dimethylphenyl)-1-piperazinyl}-propyl]-α-hydroxy-α-methyl-2-naphthaleneacetamide] | 29 nM
Cc1ccc(C)c(N2CCN(CCCNC(=O)C(C)(O)c3cccc(-c4ccccc4)c3)CC2)c1 (racemic) [Compound 44, (±)-N-[3-{4-(2,5-dimethylphenyl)-1-piperazinyl}-propyl]-α-hydroxy-α-methyl-1,1'-biphenyl-3-acetamide] | 73 nM
COC(C)(C(=O)NCCCN1CCN(c2cc(C)ccc2C)CC1)c1ccccc1 (racemic) [Compound 51, (±)-N-[3-{4-(2,5-dimethylphenyl)-1-piperazinyl}-propyl]-α-methoxy-α-methyl-benzeneacetamide] | 110 nM
Cc1ccc(C)c(N2CCN(CCCNC(=O)C(C)(OCc3ccccc3)c3ccccc3)CC2)c1 (racemic) [Compound 52, (±)-N-[3-{4-(2,5-dimethylphenyl)-1-piperazinyl}-propyl]-α-benzyloxy-α-methyl-benzeneacetamide] | 51 nM
Cc1ccc(C)c(N2CCN(CCCNC(=O)C(C)(C)O)CC2)c1 (racemic) [Compound 54, (±)-N-[3-{4-(2,5-dimethylphenyl)-1-piperazinyl}-propyl]-2-hydroxy-2-methyl-propionamide] | 280 nM
O=C(NCCCN1CCN(c2ccccc2C(O)C2CC2)CC1)C(c1ccccc1)c1ccccc1 (racemic) [Compound 55, (±)-N-[3-{4-(2-(cyclopropylhydroxymethyl)-phenyl)-1-piperazinyl}-propyl]-α-phenyl-benzeneacetamide] | 300 nM
CCCc1ccccc1N1CCN(CCCNC(=O)C(O)(c2ccccc2)c2ccccc2)CC1 (racemic) [Compound 56, (±)-N-[3-{4-(2-(propyl)-phenyl)-1-piperazinyl}-propyl]-α-hydroxy-α-phenyl-benzeneacetamide] | 25 nM
Cc1cccc(N2CCN(CCCNC(=O)C(O)(c3ccccc3)c3ccccc3)CC2)c1 [Compound 1, α-hydroxy-N-[3-{4-(3-methylphenyl)-1-piperazinyl}-propyl]-α-phenylbenzeneacetamide] | 51 nM
Cc1ccc(N2CCN(CCCNC(=O)C(O)(c3ccccc3)c3ccccc3)CC2)cc1 [Compound 3, α-hydroxy-N-[3-{4-(4-methylphenyl)-1-piperazinyl}-propyl]-α-phenyl-benzeneacetamide] | 60 nM
Cc1cccc(N2CCN(CCCNC(=O)C(O)(c3ccccc3)c3ccccc3)CC2)c1C [Compound 4, N-[3-{4-(2,3-dimethylphenyl)-1-piperazinyl}-propyl]-α-hydroxy-α-phenyl-benzeneacetamide] | 66 nM
Cc1ccc(N2CCN(CCCNC(=O)C(O)(c3ccccc3)c3ccccc3)CC2)c(C)c1 [Compound 5, N-[3-{4-(2,4-dimethylphenyl)-1-piperazinyl}-propyl]-α-hydroxy-α-phenyl-benzeneacetamide] | 60 nM
Cc1cccc(C)c1N1CCN(CCCNC(=O)C(O)(c2ccccc2)c2ccccc2)CC1 [Compound 6, N-[3-{4-(2,6-dimethylphenyl)-1-piperazinyl}-propyl]-a-hydroxy-a-phenyl-benzeneacetamide] | 480 nM
Cc1ccc(C)c(N2CCN(CCCNC(=O)C(C)(c3ccccc3)c3ccccc3)CC2)c1 [Compound 23, N-[3-{4-(2,5-dimethylphenyl)-1-piperazinyl}-propyl]-α-methyl-α-phenyl-benzeneacetamide] | 98 nM

Further lines, results first:

Ki | SMILES
55 nM | COc1ccccc1N1CCN(CCCNC(=O)C(c2ccccc2)C2CCCCC2)CC1 (racemic) [Compound 18, (±)-α-cyclohexyl-N-[3-{4-(2-methoxyphenyl)-1-piperazinyl}-propyl]-benzeneacetamide]
67 nM | Cc1ccc(C)c(N2CCN(CCCNC(=O)C(C)(O)c3ccccc3Cl)CC2)c1 (racemic) [Compound 29, (±)-2-chloro-N-[3-{4-(2,5-dimethylphenyl)-1-piperazinyl}-propyl]-α-hydroxy-α-methyl-benzeneacetamide]
44 nM | Cc1ccc(C)c(N2CCN(CCCNC(=O)C(C)(O)c3ccc(Cl)cc3)CC2)c1 (racemic) [Compound 30, (±)-4-chloro-N-[3-{4-(2,5-dimethylphenyl)-1-piperazinyl}-propyl]-α-hydroxy-α-methyl-benzeneacetamide]
43 nM | Cc1ccc(C)c(N2CCN(CCCNC(=O)C(C)(O)c3cccc(Cl)c3)CC2)c1 (racemic) [Compound 31, (±)-3-chloro-N-[3-{4-(2,5-dimethylphenyl)-1-piperazinyl}-propyl]-α-hydroxy-α-methyl-benzeneacetamide]
170 nM | CCC(O)c1ccccc1N1CCN(CCCNC(=O)C(c2ccccc2)c2ccccc2)CC1 (racemic) [Compound 36, (±)-N-[3-{4-(2-(1-hydroxypropyl)-phenyl)-1-piperazinyl}-propyl]-α-phenyl-benzeneacetamide]
38 nM | COc1ccc(C(C)(O)C(=O)NCCCN2CCN(c3cc(C)ccc3C)CC2)cc1 (racemic) [Compound 40, (±)-N-[3-{4-(2,5-dimethylphenyl)-1-piperazinyl}-propyl]-α-hydroxy-α-methyl-4-methoxy-benzeneacetamide]
50 nM | Cc1ccc(C)c(N2CCN(CCCNC(=O)C(NC(=O)Cc3ccccc3)c3ccccc3)CC2)c1 (racemic) [Compound 49, (±)-N-[3-{4-(2,5-dimethylphenyl)-1-piperazinyl}-propyl]-α-benzylcarbonylamino-benzeneacetamide]
64 nM | Cc1ccc(C)c(N2CCN(CCCNC(=O)C(c3ccc(Cl)cc3)c3ccc(Cl)cc3)CC2)c1 [Compound 21, 4-chloro-a-(4-chlorophenyl)-N-[3-{4-(2,5-dimethylphenyl)-1-piperazinyl}-propyl]-benzeneacetamide]
